Measured values published in ChEMBL document CHEMBL4184141, “Investigating the Antibacterial Activity of Biphenylthiazoles against Methicillin- and Vancomycin-Resistant Staphylococcus aureus (MRSA and VRSA)” (J Med Chem, 2017).
Values after ≈ are worked out from the molar mass of the structure shown.

What was measured:
Staphylococcus aureus [1] = assay: Antibacterial activity against methicillin-resistant Staphylococcus aureus 2658 RCMB up to 20 hrs by broth microdilution assay; type: functional
Staphylococcus aureus [2] = assay: Antibacterial activity against Staphylococcus aureus RN4220 up to 20 hrs by broth microdilution assay; type: functional; conditions: RN4220, 20 h
Staphylococcus aureus [3] = assay: Antibacterial activity against methicillin-resistant Staphylococcus aureus NRS119 up to 20 hrs by broth microdilution assay; type: functional; conditions: NRS119, 20 h
Staphylococcus aureus [4] = assay: Antibacterial activity against methicillin-resistant Staphylococcus aureus USA400 NRS123 up to 20 hrs by broth microdilution assay; type: functional; conditions: USA400 NRS123, 20 h
Staphylococcus aureus [5] = assay: Antibacterial activity against vancomycin-resistant Staphylococcus aureus VRS10 up to 20 hrs by broth microdilution assay; type: functional; conditions: VRS10, 20 h
Staphylococcus aureus [6] = assay: Antibacterial activity against vancomycin-resistant Staphylococcus aureus VRS11a up to 20 hrs by broth microdilution assay; type: functional
Staphylococcus aureus [7] = assay: Antibacterial activity against vancomycin-resistant Staphylococcus aureus VRS12 up to 20 hrs by broth microdilution assay; type: functional; conditions: VRS12, 20 h
Enterococcus faecium = assay: Antibacterial activity against vancomycin-resistant Enterococcus faecium ATCC 700221 up to 20 hrs by broth microdilution assay; type: functional; conditions: ATCC 700221, 20 h
Pseudomonas aeruginosa = assay: Antibacterial activity against Pseudomonas aeruginosa ATCC 15442 up to 20 hrs by broth microdilution assay; type: functional; conditions: ATCC 15442, 20 h
Staphylococcus aureus [8] = assay: Bactericidal activity against Staphylococcus aureus RN4220 up to 18 hrs by broth microdilution assay; type: functional; conditions: RN4220, 18 h, read-out: MBC99.9
Staphylococcus aureus [9] = assay: Bactericidal activity against methicillin-resistant Staphylococcus aureus NRS119 up to 18 hrs by broth microdilution assay; type: functional; conditions: NRS119, 18 h, read-out: MBC99.9
Staphylococcus aureus [10] = assay: Bactericidal activity against methicillin-resistant Staphylococcus aureus USA400 NRS123 up to 18 hrs by broth microdilution assay; type: functional; conditions: USA400 NRS123, 18 h, read-out: MBC99.9
Staphylococcus aureus [11] = assay: Bactericidal activity against vancomycin-resistant Staphylococcus aureus VRS10 up to 18 hrs by broth microdilution assay; type: functional; conditions: VRS10, 18 h, read-out: MBC99.9
Staphylococcus aureus [12] = assay: Bactericidal activity against vancomycin-resistant Staphylococcus aureus VRS11a up to 18 hrs by broth microdilution assay; type: functional; conditions: read-out: MBC99.9
Staphylococcus aureus [13] = assay: Bactericidal activity against vancomycin-resistant Staphylococcus aureus VRS12 up to 18 hrs by broth microdilution assay; type: functional; conditions: VRS12, 18 h, read-out: MBC99.9
Staphylococcus aureus [14] = assay: Potentiation of vancomycin-induced antibacterial activity against vancomycin-resistant Staphylococcus aureus VRS10 assessed as fold reduction in vancomycin MIC at 0.5 times MIC after 20 to 22 hrs; type: functional
Staphylococcus aureus [15] = assay: Antibacterial activity against methicillin-resistant Staphylococcus aureus USA300 infected in Caenorhabditis elegans AU37 harboring (sek-1(km4);glp-4(bn2)I) mutant assessed as reduction in bacterial burden at 20 ug/ml after 18 hrs by microscopic analysis relative to control; type: functional; set-up: scale not given: the % may be the effect or the level left
HRT-18 cell line = assay: Cytotoxicity against human HRT18 cells up to 64 microg/ml after 6 hrs by MTS assay; type: cell-based; conditions: hrt-18, 6 h
Staphylococcus aureus [16] = assay: Synergistic antibacterial activity against vancomycin-resistant Staphylococcus aureus VRS10 after 20 hrs in presence of vancomycin by checkerboard assay; type: functional; conditions: VRS10, 20 h
Staphylococcus aureus [17] = assay: Potentiation of vancomycin-induced antibacterial activity against vancomycin-resistant Staphylococcus aureus VRS10 assessed as vancomycin MIC after 20 hrs by checkerboard assay; type: functional; conditions: VRS10, 20 h
Staphylococcus aureus [18] = assay: Potentiation of vancomycin-induced antibacterial activity against vancomycin-resistant Staphylococcus aureus VRS10 assessed as reduction in vancomycin MIC after 20 hrs by checkerboard assay; type: functional
[19] = Selectivity index, ratio of cytotoxic concentration for human HRT18 cells to MIC for methicillin-resistant Staphylococcus aureus; type: toxicity; conditions: read-out: Selectivity Index

Cc1nc(-c2ccc(-c3ccccc3)cc2)sc1-c1ccnc(NN2CCN(C)CC2)n1
MIC (Staphylococcus aureus [1]): 0.78 µg/mL (≈ 1.76 µM)
MIC (Staphylococcus aureus [2]): 4 µg/mL (≈ 9.04 µM)
MIC (Staphylococcus aureus [3]): 4 µg/mL (≈ 9.04 µM)
MIC (Staphylococcus aureus [4]): 4 µg/mL (≈ 9.04 µM)
MIC (Staphylococcus aureus [5]): 8 µg/mL (≈ 18.1 µM)
MIC (Staphylococcus aureus [6]): 8 µg/mL (≈ 18.1 µM)
MIC (Staphylococcus aureus [7]): 8 µg/mL (≈ 18.1 µM)
MIC (Enterococcus faecium): > 64 µg/mL
MIC (Pseudomonas aeruginosa): > 64 µg/mL
MBC (Staphylococcus aureus [8]): 8 µg/mL (≈ 18.1 µM)
MBC (Staphylococcus aureus [9]): 4 µg/mL (≈ 9.04 µM)
MBC (Staphylococcus aureus [10]): 4 µg/mL (≈ 9.04 µM)
MBC (Staphylococcus aureus [11]): 8 µg/mL (≈ 18.1 µM)
MBC (Staphylococcus aureus [12]): 8 µg/mL (≈ 18.1 µM)
MBC (Staphylococcus aureus [13]): 8 µg/mL (≈ 18.1 µM)
fold change (FC) (Staphylococcus aureus [14]): 128
Activity (Staphylococcus aureus [15]): 46%
Activity (HRT-18 cell line): Non-Toxic
MIC (Staphylococcus aureus [16]): 4 µg/mL
MIC (Staphylococcus aureus [17]): 4 to 8 µg/mL
fractional inhibitory concentration index (FICI) (Staphylococcus aureus [18]): 0.51 - 0.56
selectivity ratio [19]: 16
